Source: publication PMC3175016 (Journal of applied toxicology : JAT, 2011)
Marks after values point to notes of the source that are not given here.

Tests used:
Format in all cases: in vivo
male Fischer 344 rats [1] = assay: Six-hour urine protein content after a single i.p. dose; details: i.p. in corn oil, mean ± SE, N = 3–4
male Fischer 344 rats [2] = assay: Urine volume after a single i.p. dose; details: for Twenty-four-hour urine volume: i.p. in corn oil, mean ± SE, N = 3–4
male Fischer 344 rats [3] = assay: Serum alanine aminotransferase; details: 24 h; for Change in serum ALT levels: vs corn oil; for serum alanine aminotransferase (ALT) activity: 1.0 mmol/kg i.p. in corn oil, corn oil controls 36.0 ± 11.3
male Fischer 344 rats [4] = assay: Kidney histology; details: all doses evaluated, i.p., 24 h, vs corn oil
male Fischer 344 rats [5] = assay: Liver weight 24 h after a single i.p. dose; details: i.p. in corn oil, mean ± SE, N = 3–4
male Fischer 344 rats [6] = assay: Liver histology; details: 24 h
male Fischer 344 rats [7] = assay: Blood urea nitrogen; details: for Blood urea nitrogen: i.p. in corn oil, 24 h, mean ± SE, N = 3–4
male Fischer 344 rats [8] = assay: Kidney weight 24 h after a single i.p. dose; details: i.p. in corn oil, mean ± SE, N = 3–4
[9] = dose 0.2 (head mg/kg; text mmol/kg)
[10] = dose 0.4 (head mg/kg; text mmol/kg)
[11] = dose 0.6 (head mg/kg; text mmol/kg)
[12] = dose 1.0 (head mg/kg; text mmol/kg)
[13] = all four doses (0.2, 0.4, 0.6, 1.0 mmol/kg) i.p.
[14] = all doses (0.2–1.0 mmol/kg) i.p.

| SMILES | Six-hour urine protein content (male Fischer 344 rats [1]; [9]) | Six-hour urine protein content (male Fischer 344 rats [1]; [10]) | Six-hour urine protein content (male Fischer 344 rats [1]; [11]) | Six-hour urine protein content (male Fischer 344 rats [1]; [12]) | Twenty-four-hour urine volume (male Fischer 344 rats [2]; [9]) | Twenty-four-hour urine volume (male Fischer 344 rats [2]; [10]) | Twenty-four-hour urine volume (male Fischer 344 rats [2]; [11]) | Twenty-four-hour urine volume (male Fischer 344 rats [2]; [12]) | Kidney morphology (male Fischer 344 rats [4]) | Liver weight (male Fischer 344 rats [5]; [9]) | Liver weight (male Fischer 344 rats [5]; [10]) | Liver weight (male Fischer 344 rats [5]; [11]) | Liver weight (male Fischer 344 rats [5]; [12]) | Blood urea nitrogen (male Fischer 344 rats [7]; [9]) | Blood urea nitrogen (male Fischer 344 rats [7]; [10]) | Blood urea nitrogen (male Fischer 344 rats [7]; [11]) | Blood urea nitrogen (male Fischer 344 rats [7]; [12]) | Kidney weight (male Fischer 344 rats [8]; [9]) | Kidney weight (male Fischer 344 rats [8]; [10]) | Kidney weight (male Fischer 344 rats [8]; [11]) | further results |
| --- | --- | --- | --- | --- | --- | --- | --- | --- | --- | --- | --- | --- | --- | --- | --- | --- | --- | --- | --- | --- | --- |
| O=C1SCCN1c1cc(Cl)cc(Cl)c1 [2-DCTD, 3-(3,5-dichlorophenyl)-2-thiazolidinone] | 1.6 ± 0.4^d mg | 1.8 ± 0.1^d mg | 2.2 ± 0.1^d mg | 2.0 ± 0.1^d mg | 6.0 ± 0.8^d ml | 4.3 ± 0.3^d ml | 5.0 ± 0.7^d ml | 4.4 ± 1.3^d ml | did not produce any noticeable changes in the kidney morphology | 3.96 ± 0.10^d g/100% BW | 3.71 ± 0.11^d g/100% BW | 3.74 ± 0.11^d g/100% BW | 3.85 ± 0.15^d g/100% BW | 23.0 ± 1.2^g mg/dl | 22.3 ± 1.1^g mg/dl | 23.9 ± 0.9^g mg/dl | 24.4 ± 0.7^g mg/dl | 0.39 ± 0.01^e g/ 100% BW | 0.38 ± 0.01^e g/ 100% BW | 0.40 ± 0.01^e g/ 100% BW | Change in serum ALT levels (male Fischer 344 rats [3]; [13]): did not exhibit any significant changes in serum ALT levels; Liver morphology (male Fischer 344 rats [6]; [14]): generally normal, although some nuclear condensation was evident; Kidney weight (male Fischer 344 rats [8]; [12]): 0.37 ± 0.01^e g/ 100% BW |
| O=C1CSCN1c1cc(Cl)cc(Cl)c1 [4-DCTD, 3-(3,5-dichlorophenyl)-4-thiazolidinone] | 1.8 ± 0.3^c mg | 1.6 ± 0.2^c mg | 1.9 ± 0.4^c mg | 2.8 ± 0.3^c mg | 12.3 ± 1.7*,^c ml | 11.3 ± 2.2*,^c ml | 9.1 ± 1.6*,^c ml | 12.3 ± 1.0*,^c ml | Minor swelling in the proximal tubular cells and slight dilation of collecting tubules | 3.74 ± 0.23^c g/100% BW | 3.96 ± 0.18^c g/100% BW | 3.46 ± 0.09^c g/100% BW | 3.81 ± 0.15^c g/100% BW | 26.8 ± 1.5^d mg/dl | 25.6 ± 1.9^d mg/dl | 33.8 ± 2.4*,^e mg/dl | 42.5 ± 1.1*,^f mg/dl | 0.40 ± 0.01^d g/ 100% BW | 0.37 ± 0.01^d g/ 100% BW | 0.41 ± 0.01^d g/ 100% BW | Diuresis / increase in urine volume (male Fischer 344 rats [2]; all doses, compared to controls, not dose-dependent): approximately three and a half-fold increase; Change in serum ALT levels (male Fischer 344 rats [3]; [13]): did not exhibit any significant changes in serum ALT levels; Liver morphology (male Fischer 344 rats [6]; [14]): no changes in hepatic morphology; Kidney weight (male Fischer 344 rats [8]; [12]): 0.42 ± 0.01^d g/ 100% BW |
| O=C1CSC(=O)N1c1ccc(Cl)cc1 [CPTD, 3-(4-chlorophenyl)-2,4-thiazolidinedione] | 2.0 ± 0.1^c mg | 1.9 ± 0.1^c mg | 2.0 ± 0.1^c mg | 1.9 ± 0.1^c mg | 5.7 ± 1.5^b ml | 12.4 ± 4.6*,^c ml | 16.6 ± 0.8*,^c ml | 15.3 ± 2.7*,^c ml | minor swelling in some proximal tubular cells | 3.62 ± 0.16^c g/100% BW | 3.84 ± 0.07^c g/100% BW | 4.36 ± 0.06*,^d g/100% BW | 3.98 ± 0.14*,^c g/100% BW | 37.9 ± 0.6*,^c mg/dl | 38.1 ± 1.7*,^c mg/dl | 40.4 ± 2.7*,^c mg/dl | 34.9 ± 1.8*,^c mg/dl | 0.39 ± 0.02^b g/ 100% BW | 0.41 ± 0.01^b g/ 100% BW | 0.46 ± 0.02*,^c g/ 100% BW | serum alanine aminotransferase (ALT) activity (male Fischer 344 rats [3]): 1622.5 ± 218.5 Sigma-Frankel units/ml; Change in serum ALT levels (male Fischer 344 rats [3]; [13]): significantly elevated; Liver morphology (male Fischer 344 rats [6]; 1.0 mmol/kg i.p.): signs of liquefactive necrosis; Liver morphology (male Fischer 344 rats [6]; [14]): necrotic lesions with acute inflammatory response; Increase in BUN levels (male Fischer 344 rats [7]; all dosages, compared to corn oil controls): 1.8 fold; Kidney weight (male Fischer 344 rats [8]; [12]): 0.51 ± 0.04*,^c g/ 100% BW |
| O=C1CSC(=O)N1c1cc(C(F)(F)F)cc(C(F)(F)F)c1 [DFMPT, 3-[3,5-bis(trifluoromethyl)phenyl]-2,4-thiazolidinedione] | 1.1 ± 0.3^e mg | 1.6 ± 0.2^e mg | 1.5 ± 0.2^e mg | 1.0 ± 0.2^e mg | 10.1 ± 1.3*,^f ml | 14.1 ± 2.6*,^f,^g ml | 20.0 ± 3.1*,^g,^h ml | 23.5 ± 1.8*,^h ml | minor swelling in some proximal tubular cells | 3.82 ± 0.12^f g/100% BW | 3.59 ± 0.10^f g/100% BW | 3.78 ± 0.07^f g/100% BW | 4.05 ± 0.15*,^f g/100% BW | 19.6 ± 0.5^e mg/dl | 21.7 ± 0.4^e mg/dl | 22.5 ± 0.5^e mg/dl | 32.7 ± 1.4*,^f mg/dl | 0.40 ± 0.01^g g/ 100% BW | 0.42 ± 0.03^g g/ 100% BW | 0.30 ± 0.09^g g/ 100% BW | Change in serum ALT levels (male Fischer 344 rats [3]; [13]): normal; Liver morphology (male Fischer 344 rats [6]; [14]): did not show any noticeable changes in morphology; Kidney weight (male Fischer 344 rats [8]; [12]): 0.48 ± 0.01*,^h g/ 100% BW |
| Cc1cc(C)cc(N2C(=O)CSC2=O)c1 [DMPT, 3-(3,5-dimethylphenyl)-2,4-thiazolidinedione] | 0.8 ± 0.3^a mg | 1.4 ± 0.1^a mg | 1.9 ± 0.2^a mg | 2.8 ± 0.4*,^b mg | 5.8 ± 1.4*,^a ml | 9.9 ± 2.2*,^a ml | 8.9 ± 1.8*,^a ml | 11.3 ± 2.5*,^a ml | normal | 3.47 ± 0.20^a g/100% BW | 4.10 ± 0.20*,^b g/100% BW | 4.20 ± 0.05*,^b g/100% BW | 3.97 ± 0.04*,^b g/100% BW | 18.1 ± 1.3^a mg/dl | 22.2 ± 0.4^a mg/dl | 27.5 ± 1.4*,^b mg/dl | 32.8 ± 3.1*,^b mg/dl | 0.38 ± 0.01^a g/ 100% BW | 0.40 ± 0.02^a g/ 100% BW | 0.39 ± 0.00^a g/ 100% BW | serum alanine aminotransferase (ALT) activity (male Fischer 344 rats [3]): 2071.9 ± 217.8 Sigma-Frankel units/ml; Change in serum ALT levels (male Fischer 344 rats [3]; all doses except the lowest (0.4, 0.6, 1.0 mmol/kg) i.p.): marked increases in serum ALT levels; Liver morphology (male Fischer 344 rats [6]; 0.2 and 0.4 mmol/kg i.p.): necrotic lesions with infiltration of inflammatory cells, neutrophils and lymphocytes; Liver morphology (male Fischer 344 rats [6]; 0.6 and 1.0 mmol/kg i.p.): necrotic lesions were widespread with many inflammatory cells seen around the lesions; Kidney weight (male Fischer 344 rats [8]; [12]): 0.38 ± 0.01^a g/ 100% BW |
